The values that follow come from ChEMBL document CHEMBL3352167 (Bioorg Med Chem, 2015).

Experiment [1] has as its target Sigma non-opioid intracellular receptor 1 (Cavia porcellus, UniProt Q60492). As to the kind of experiment: Displacement of [3H]-(+)-pentazocine from sigma1 receptor in guinea pig brain membrane after 150 mins by scintillation counting analysis. Format: cell membranes.
Experiment [2] in a line: Displacement of [3H]DTG from sigma2 receptor in guinea pig brain membrane after 120 mins by scintillation counting analysis. It is filed as cell membranes, Cavia porcellus. For orientation: In a radioligand displacement assay an active substance lowers the binding of a labelled ligand.
The target in experiment [3] is Sodium-dependent serotonin transporter (Mus musculus, UniProt Q60857). As to the kind of experiment: Displacement of [3H]paroxetine from mouse SERT in whole brain membrane. It is filed as cell membranes.
Sequence of Sodium-dependent serotonin transporter (Q60857 whole entry): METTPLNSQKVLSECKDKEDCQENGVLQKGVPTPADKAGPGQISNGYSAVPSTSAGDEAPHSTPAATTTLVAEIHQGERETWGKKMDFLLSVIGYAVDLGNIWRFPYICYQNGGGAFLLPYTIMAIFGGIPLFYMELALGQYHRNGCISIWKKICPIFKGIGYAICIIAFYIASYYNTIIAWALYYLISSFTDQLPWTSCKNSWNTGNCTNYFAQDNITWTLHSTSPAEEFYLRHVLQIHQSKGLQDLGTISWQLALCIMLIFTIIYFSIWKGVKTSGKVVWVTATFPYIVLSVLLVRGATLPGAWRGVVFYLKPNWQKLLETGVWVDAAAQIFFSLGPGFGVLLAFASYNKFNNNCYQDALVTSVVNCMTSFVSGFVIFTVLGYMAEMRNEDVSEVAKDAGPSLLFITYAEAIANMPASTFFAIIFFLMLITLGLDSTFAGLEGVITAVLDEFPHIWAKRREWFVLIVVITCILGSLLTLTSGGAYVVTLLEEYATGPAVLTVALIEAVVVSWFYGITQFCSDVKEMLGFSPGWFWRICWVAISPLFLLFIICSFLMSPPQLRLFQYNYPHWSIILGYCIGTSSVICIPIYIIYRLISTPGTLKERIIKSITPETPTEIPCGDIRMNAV
The nature of experiment [4]: Selectivity ratio of Ki for mouse DAT to Ki for guinea pig brain sigma1 receptor.
Experiment [5] has as its target Sodium-dependent dopamine transporter (Mus musculus) (UniProt Q61327). As to the kind of experiment: […] from mouse DAT in striatal membranes at 10000 nM. It is filed as cell membranes. Particulars: Striatum, Membrane.
Experiment [6] concerns the target Sodium-dependent dopamine transporter (Mus musculus, UniProt Q61327). As to the kind of experiment: Displacement of [3H]RTI-121 from mouse DAT in striatal membranes. Format: cell membranes, Striatum, Membrane.
Experiment [7] in a line: Selectivity ratio of Ki for mouse SERT to Ki for guinea pig brain sigma1 receptor.
The species named for the next experiment is Cavia porcellus. As to the kind of experiment: Selectivity ratio of Ki for guinea pig brain sigma2 receptor to Ki for guinea pig brain sigma1 receptor.

Sequence of Sodium-dependent dopamine transporter (Mus musculus) (Q61327 whole entry): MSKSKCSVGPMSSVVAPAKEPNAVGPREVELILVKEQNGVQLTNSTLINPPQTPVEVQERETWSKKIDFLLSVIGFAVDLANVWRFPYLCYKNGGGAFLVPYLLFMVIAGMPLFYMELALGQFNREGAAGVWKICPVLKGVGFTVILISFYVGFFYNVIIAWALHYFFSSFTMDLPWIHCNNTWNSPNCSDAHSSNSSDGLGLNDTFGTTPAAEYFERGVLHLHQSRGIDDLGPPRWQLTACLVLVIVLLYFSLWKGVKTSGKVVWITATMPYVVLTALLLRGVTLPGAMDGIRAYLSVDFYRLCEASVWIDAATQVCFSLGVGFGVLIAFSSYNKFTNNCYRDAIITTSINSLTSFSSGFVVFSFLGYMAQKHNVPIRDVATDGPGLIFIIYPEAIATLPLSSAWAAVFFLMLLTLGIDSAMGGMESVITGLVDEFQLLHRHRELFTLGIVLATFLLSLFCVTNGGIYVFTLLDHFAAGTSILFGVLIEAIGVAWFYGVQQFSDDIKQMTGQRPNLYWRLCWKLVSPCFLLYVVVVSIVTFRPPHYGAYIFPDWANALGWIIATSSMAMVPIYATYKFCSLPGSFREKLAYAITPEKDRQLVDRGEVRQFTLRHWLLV
Sequence of Sodium-dependent dopamine transporter (Q61327 whole entry): as above
Sequence of Sigma non-opioid intracellular receptor 1 (Q60492 whole entry): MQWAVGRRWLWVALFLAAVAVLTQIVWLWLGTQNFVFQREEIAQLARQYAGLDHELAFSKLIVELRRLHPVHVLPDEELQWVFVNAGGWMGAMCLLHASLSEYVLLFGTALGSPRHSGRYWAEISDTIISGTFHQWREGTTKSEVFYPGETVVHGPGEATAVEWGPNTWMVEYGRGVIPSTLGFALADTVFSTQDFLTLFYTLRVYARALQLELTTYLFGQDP

On to `Clc1ccc(CCN2CCN(CCCc3ccccc3)CC2)cc1Cl`, for which the Ki (usually the equilibrium dissociation constant of an inhibitor or competing ligand from its target) in experiment [1] is 2.2 nM; in experiment [2], 38.8 nM; in experiment [3], 2860 nM.

As to `c1ccc(CCCN2CCN(CCc3ccc4c(c3)OCO4)CC2)cc1`, the Ratio Ki came out at 721 in experiment [4], 184 in experiment [7] and 5.8 in the experiment listed under Cavia porcellus. Also, in experiment [5], the Inhibition % worked out at 42%. Moreover, the Ki in experiment [1] stood at 2.55 nM; in experiment [2], 14.8 nM; in experiment [3], 468 nM; in experiment [6], 1840 nM.

For `CCCOc1ccc(CCN2CCN(CCCc3ccccc3)CC2)cc1OC`, the Ratio Ki in experiment [4] was 71; in experiment [7], 4.8; in the experiment listed under Cavia porcellus, 1.3. In experiment [5], the Inhibition % came out at 43%. In addition, the Ki in experiment [1] is 25.6 nM; in experiment [2], 33.4 nM; in experiment [3] it was 124 nM; in experiment [6], 1820 nM.

In experiment [5], `COc1cc(CCN2CCN(CCCc3ccccc3)CC2)ccc1OCCc1ccccc1` returned an Inhibition % of 89%. In addition, the inhibitory constant (Ki) is 13.3 nM in experiment [1] and 16.6 nM in experiment [2]. In the experiment filed under Cavia porcellus, the Ratio Ki was determined as 1.2.

`c1ccc(CCCN2CCN(CCc3ccc4c(c3)OCCO4)CC2)cc1` gave an Inhibition % in experiment [5] of 33%. Besides, the Ki in experiment [1] amounted to 10.2 nM; in experiment [2], 35.2 nM. In the experiment listed under Cavia porcellus, the Ratio Ki was 3.4.

As for `COc1cc(CCN2CCN(CCCc3ccccc3)CC2)ccc1OC/C=C/I`, the Ratio Ki in experiment [4] was determined as 33; in experiment [7], 10.3; in the experiment filed under Cavia porcellus, 1.1. Further, the Inhibition % in experiment [5] is 69%. Besides, the Ki in experiment [1] was 16.9 nM; in experiment [2] it was 18.2 nM; in experiment [3], 174 nM; in experiment [6], 560 nM.

On to `COc1cc(CCN2CCN(CCCc3ccccc3)CC2)ccc1OCCCc1ccccc1`, for which the values for the Ratio Ki (in experiment [4]; in the experiment listed under Cavia porcellus) were 5 and 1.3, respectively. Also, the Inhibition % in experiment [5] amounted to 97%. For the same compound, the Ki in experiment [1] is 18.4 nM; in experiment [2], 23.3 nM; in experiment [6], 87 nM.

For the compound `COc1cc(CCN2CCN(CCCc3ccccc3)CC2)ccc1OCc1ccccc1`, the Ratio Ki in experiment [4] came out at 6; in experiment [7], 6.2; in the experiment filed under Cavia porcellus it was 0.8. Also, the Inhibition % in experiment [5] turned out to be 93%. Moreover, the Ki worked out at 20.8 nM in experiment [1], 16.4 nM in experiment [2], 128 nM in experiment [3] and 121 nM in experiment [6].

In the case of `COc1ccc(CCN2CCN(CCCc3ccccc3)CC2)cc1OC` [[11C]SA4503], the Ki turned out to be 63.1 nM in experiment [2] and 760 nM in experiment [3].

For the compound `COc1cc(CCN2CCN(CCCc3ccccc3)CC2)ccc1O`, the Ki was found to be 1.75 nM in experiment [1] and 6.72 nM in experiment [2]. The Ratio Ki in the experiment filed under Cavia porcellus amounted to 3.8.

Turning to `COc1ccc(CCN2CCN(CCCc3ccccc3)CC2)cc1`, the Ratio Ki worked out at 1130 in experiment [4], 1330 in experiment [7] and 22 in the experiment filed under Cavia porcellus. Further, the Ki was 1.3 nM in experiment [1], 28.6 nM in experiment [2], 1730 nM in experiment [3] and 1470 nM in experiment [6].

Consider `COc1cc(CCN2CCN(CCCc3ccccc3)CC2)ccc1OCF`, for which, in experiment [5], the Inhibition % is 19%. In addition, the Ki in experiment [1] stood at 6.4 nM; in experiment [2], 250 nM. The Ratio Ki in the experiment filed under Cavia porcellus was determined as 39.

For `c1ccc(CCCN2CCN(CCc3ccc4c(c3)OCCCO4)CC2)cc1`, the Inhibition % in experiment [5] turned out to be 43%. In addition, the Ki amounted to 19.1 nM in experiment [1] and 52.1 nM in experiment [2]. In addition, the Ratio Ki in the experiment listed under Cavia porcellus worked out at 2.7.

For `COc1cc(CCN2CCN(CCCc3ccccc3)CC2)ccc1OCCBr`, the Inhibition % in experiment [5] is 38%. In addition, the Ki was 25.4 nM in experiment [1] and 27.1 nM in experiment [2]. Besides, the Ratio Ki in the experiment filed under Cavia porcellus came to 1.1.

In experiment [5], `COc1cc(CCN2CCN(CCCc3ccccc3)CC2)ccc1OCCF` gave an Inhibition % of 23%. Besides, the inhibitory constant (Ki) in experiment [1] was 8.03 nM; in experiment [2], 113 nM. Moreover, the Ratio Ki in the experiment listed under Cavia porcellus stood at 14.1.

For `COc1cc(CCN2CCN(CCCc3ccccc3)CC2)ccc1OC/C=C\I`, the values for the Ratio Ki (in experiment [4]; in the experiment filed under Cavia porcellus) were 22 and 1.6, respectively. In experiment [5], the Inhibition % turned out to be 94%. Moreover, the Ki in experiment [1] was 10.7 nM; in experiment [2], 16.7 nM; in experiment [6], 237 nM.

In experiment [2], `COc1ccccc1CCN1CCN(CCCc2ccccc2)CC1` had a Ki of 7.5 nM.

Consider `COc1cccc(CCN2CCN(CCCc3ccccc3)CC2)c1`, for which the Ratio Ki in experiment [4] is 1010; in experiment [7], 703; in the experiment filed under Cavia porcellus it was 7.3. Further, the Ki worked out at 1.4 nM in experiment [1], 10.2 nM in experiment [2], 985 nM in experiment [3] and 1410 nM in experiment [6].

Consider `C=CCOc1ccc(CCN2CCN(CCCc3ccccc3)CC2)cc1OC`, for which the figures for the Ratio Ki (in experiment [4]; in experiment [7]; in the experiment filed under Cavia porcellus) were 69, 9.8 and 1.4, respectively. Further, in experiment [5], the Inhibition % came to 44%. Also, the Ki in experiment [1] was 30.1 nM; in experiment [2], 42.1 nM; in experiment [3], 295 nM; in experiment [6] it was 2080 nM.
